The source of these data is US8148388B2, “2,4 (4,6) pyrimidine derivatives” (Janssen Pharmaceutica, N.V., priority 2004, dated 2012).

Common to all, as to assay type: biochemical
One test concerns the target Lck (h) (Homo sapiens, UniProt P06239). The experiment in a line: Lck human kinase assay (glass-fiber filter). Particulars: test concentration of 10^−6M; for inhibition at 1 µM: read-out: C9 score (inhibition of Lck human). Here is the method: (§1) The in vitro inhibition of a panel of kinases was assessed using either the glass-fiber filter technology as described by Davies, S. P. et al., Biochem J. […] In the glass-fiber filter technology the activity of the kinase of interest is measured using an appropriate substrate that is incubated with the aforementioned kinase protein in the presence of (^33P) radiolabeled ATP. (^33P) Phosphorylation of the substrate is subsequently measured as radioactivity bound on a glass fiber-filter. All kinases are pre-diluted to a 10× working concentration prior to addition into the assay. The composition of the dilution buffer for each kinase is detailed below. [table] […] The reaction is initiated by the addition of the MgATP mix. […] 10 μl of the reaction is then spotted onto a P30 filtermat and washed three times for 5 minutes in 75 mM phosphoric acid and once in methanol prior to drying and scintillation counting.

The next test concerns the target Lyn (h) (Homo sapiens, UniProt P07948). Nature of the test: Lyn human kinase assay (glass-fiber filter). The conditions noted are these: test concentration of 10^−6M; for inhibition at 1 µM: read-out: C10 score (inhibition of Lyn human). Here is the method: (§2) In the glass-fiber filter technology the activity of the kinase of interest is measured using an appropriate substrate that is incubated with the aforementioned kinase protein in the presence of (^33P) radiolabeled ATP. (^33P) Phosphorylation of the substrate is subsequently measured as radioactivity bound on a glass fiber-filter.
(§3) All kinases are pre-diluted to a 10× working concentration prior to addition into the assay. The composition of the dilution buffer for each kinase is detailed below.
In a final reaction volume of […] (h) (5-10 mU) is incubated with 50 mM Tris pH 7.5, 0.1 mM EGTA, 0.1 mM Na3VO4, 0.1% O-mercaptoethanol, 0.1 mg/ml poly(Glu, Tyr) 4:1, 10 mM MgAcetate and [γ-^33P-ATP] (specific activity approx. 500 cpm/pmol, concentration as required). The reaction is initiated by the addition of the MgATP mix. After incubation for 40 minutes at room temperature, the reaction is stopped by the addition of 5 μl of a 3% phosphoric acid solution. 10 μl of the reaction is then spotted onto a Filtennat A and washed three times for 5 minutes in 75 mM phosphoric acid and once in methanol prior to drying and scintillation counting.

A further test deals with cSRC (h) (Homo sapiens, UniProt P12931). Nature of the test: cSRC human kinase assay (glass-fiber filter). The conditions noted are these: test concentration of 10^−6M; for inhibition at 1 µM: read-out: C3 score (inhibition of cSRC human). Here is the method:
as §1, with “below.” for “below. [table]”

Another test deals with Flt3 (h) (Homo sapiens, UniProt P36888). Nature of the test: Flt3 human kinase assay (glass-fiber filter). The conditions noted are these: test concentration of 10^−6M; read-out: C6 score (inhibition of Flt3 human). Here is the method:
(§4) The in vitro inhibition of a panel of kinases was assessed using either the glass-fiber filter technology as described by Davies, S. P. et al., Biochem J. (2000), 351; p. 95-105.
as §2, §3
In a final reaction volume of 25 μl, Flt3 (h) (5-10 mU) is incubated with 8 mM MOPS pH 7.0, 0.2 mM EDTA, 50 μM […], 10 mM MgAcetate and [γ-^33P-ATP] (specific activity approx. 500 cpm/pmol, concentration as required). The reaction is initiated by the addition of the MgATP mix. After incubation for 40 minutes at room temperature, the reaction is stopped by the addition of 5 μl of a 3% phosphoric acid solution. 10 μl of the reaction is then spotted onto a P30 filtermat and washed three times for 5 minutes in 75 mM phosphoric acid and once in methanol prior to drying and scintillation counting.

The target of a further test is Fms (h) (Homo sapiens, UniProt P07333). The experiment in a line: Fms human kinase assay (glass-fiber filter). Particulars: test concentration of 10^−6M; read-out: C7 score (inhibition of Fms human). Here is the method:
as §4, §2, §3
In a final reaction volume of 25 μl, Fms (h) (5-10 mU) is incubated with 8 mM MOPS pH 7.0, 0.2 mM EDTA, 250 μM […], 10 mM MgAcetate and [γ-^33P-ATP] (specific activity approx. 500 cpm/pmol, concentration as required). The reaction is initiated by the addition of the MgATP mix. After incubation for 40 minutes at room temperature, the reaction is stopped by the addition of 5 μl of a 3% phosphoric acid solution. 10 μl of the reaction is then spotted onto a P30 filtermat and washed three times for 5 minutes in 75 mM phosphoric acid and once in methanol prior to drying and scintillation counting.

The target of the next test is Abl (h) (Homo sapiens, UniProt P00519). Nature of the test: Abl human kinase assay (glass-fiber filter). The conditions noted are these: test concentration of 10^−6M; for inhibition at 1 µM: read-out: C1 score (inhibition of Abl human). As to the method: as §2, §3
(specific activity approx. 500 cpm/pmol, concentration as required). The reaction is initiated by the addition of the MgATP mix. After incubation for 40 minutes at room temperature, the reaction is stopped by the addition of 5 μl of a 3% phosphoric acid solution. 10 μl of the reaction is then spotted onto a P30 filtermat and washed three times for 5 minutes in 75 mM phosphoric acid and once in methanol prior to drying and scintillation counting.

A further test addresses Yes (h) (Homo sapiens, UniProt P07947). The experiment in a line: Yes human kinase assay (glass-fiber filter). The conditions noted are these: test concentration of 10^−6M; for inhibition at 1 µM: read-out: C11 score (inhibition of Yes human). Here is the method: as §2, §3
(§5) In a final reaction volume of 25 μl, Yes (h) (5-10 mU) is incubated with 8 mM MOPS pH 7.0, 0.2 mM EDTA, 0.1 mg/ml poly(Glu, Tyr) 4:1, 10 mM MgAcetate and [γ-^33P-ATP] (specific activity approx. 500 cpm/μmol, concentration as required). The reaction is initiated by the addition of the MgATP mix. After incubation for 40 minutes at room temperature, the reaction is stopped by the addition of 5 μl of a 3% phosphoric acid solution. 10 μl of the reaction is then spotted onto a Filtermat A and washed three times for 5 minutes in 75 mM phosphoric acid and once in methanol prior to drying and scintillation counting.

Another test concerns the target Fes (h) (Homo sapiens, UniProt P07332). The experiment in a line: Fes human kinase assay (glass-fiber filter). The conditions noted are these: test concentration of 10^−6M; for inhibition at 1 µM: read-out: C4 score (inhibition of Fes human). Here is the method: as §2, §3
as §5, with “Fes” for “Yes”, “cpm/pmol,” for “cpm/μmol,”

For another test, the target named is GSK3B (h) (Homo sapiens, UniProt P49841). Nature of the test: GSK3β human kinase assay (glass-fiber filter). The conditions noted are these: test concentration of 10^−6M; read-out: C8 score (inhibition of GSK3β human). As to the method: as §4, §2, §3
In a final reaction volume of 25 μl, GSK3B (h) (5-10 mU) is incubated with 8 mM MOPS pH 7.0, 0.2 mM EDTA, 20 μM […](p)EDEEE (phospho GS2 peptide), 10 mM MgAcetate and [γ-^33P-ATP] (specific activity approx. 500 cpm/pmol, concentration as required). The reaction is initiated by the addition of the MgATP mix. After incubation for 40 minutes at room temperature, the reaction is stopped by the addition of 5 μl of a 3% phosphoric acid solution. 10 μl of the reaction is then spotted onto a P30 filtermat and washed three times for 5 minutes in 50 mM phosphoric acid and once in methanol prior to drying and scintillation counting.

A further test addresses EGFR (h) (Homo sapiens, UniProt P00533). The experiment in a line: EGFR human kinase assay (glass-fiber filter). Particulars: test concentration of 10^−6M; for inhibition at 1 µM: read-out: C4 score (inhibition of EGFR human). As to the method: as §2, §3
as §5, with “EGFR” for “Yes”, “EDTA, 10 mM MnCl2,” for “EDTA,”, “cpm/pmol,” for “cpm/μmol,”

Fms (h), sequence (P07333 20-972): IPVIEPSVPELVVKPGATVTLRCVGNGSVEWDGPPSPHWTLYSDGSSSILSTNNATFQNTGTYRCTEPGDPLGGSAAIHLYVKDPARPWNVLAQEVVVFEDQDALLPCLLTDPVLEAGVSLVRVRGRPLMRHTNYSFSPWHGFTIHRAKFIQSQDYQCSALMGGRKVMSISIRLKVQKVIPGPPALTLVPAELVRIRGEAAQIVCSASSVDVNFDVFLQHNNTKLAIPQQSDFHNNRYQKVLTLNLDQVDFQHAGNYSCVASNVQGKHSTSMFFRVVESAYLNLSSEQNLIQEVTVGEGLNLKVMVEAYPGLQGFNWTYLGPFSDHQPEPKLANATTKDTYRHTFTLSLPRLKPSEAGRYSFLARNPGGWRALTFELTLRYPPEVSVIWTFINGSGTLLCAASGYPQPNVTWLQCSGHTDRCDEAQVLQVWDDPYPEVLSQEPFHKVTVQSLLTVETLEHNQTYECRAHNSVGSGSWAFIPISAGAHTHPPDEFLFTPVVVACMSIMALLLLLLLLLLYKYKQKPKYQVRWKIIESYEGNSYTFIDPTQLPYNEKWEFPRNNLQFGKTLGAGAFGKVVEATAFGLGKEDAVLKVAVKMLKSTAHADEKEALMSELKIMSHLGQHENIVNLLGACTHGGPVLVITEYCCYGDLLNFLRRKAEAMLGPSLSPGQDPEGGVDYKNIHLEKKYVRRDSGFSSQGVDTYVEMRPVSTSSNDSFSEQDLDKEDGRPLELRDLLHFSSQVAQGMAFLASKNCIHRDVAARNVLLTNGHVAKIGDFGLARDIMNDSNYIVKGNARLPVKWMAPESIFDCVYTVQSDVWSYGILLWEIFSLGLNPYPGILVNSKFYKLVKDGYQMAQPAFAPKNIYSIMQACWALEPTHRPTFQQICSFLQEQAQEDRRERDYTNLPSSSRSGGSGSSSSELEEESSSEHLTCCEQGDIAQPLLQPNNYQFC
EGFR (h), sequence (P00533 25-1210): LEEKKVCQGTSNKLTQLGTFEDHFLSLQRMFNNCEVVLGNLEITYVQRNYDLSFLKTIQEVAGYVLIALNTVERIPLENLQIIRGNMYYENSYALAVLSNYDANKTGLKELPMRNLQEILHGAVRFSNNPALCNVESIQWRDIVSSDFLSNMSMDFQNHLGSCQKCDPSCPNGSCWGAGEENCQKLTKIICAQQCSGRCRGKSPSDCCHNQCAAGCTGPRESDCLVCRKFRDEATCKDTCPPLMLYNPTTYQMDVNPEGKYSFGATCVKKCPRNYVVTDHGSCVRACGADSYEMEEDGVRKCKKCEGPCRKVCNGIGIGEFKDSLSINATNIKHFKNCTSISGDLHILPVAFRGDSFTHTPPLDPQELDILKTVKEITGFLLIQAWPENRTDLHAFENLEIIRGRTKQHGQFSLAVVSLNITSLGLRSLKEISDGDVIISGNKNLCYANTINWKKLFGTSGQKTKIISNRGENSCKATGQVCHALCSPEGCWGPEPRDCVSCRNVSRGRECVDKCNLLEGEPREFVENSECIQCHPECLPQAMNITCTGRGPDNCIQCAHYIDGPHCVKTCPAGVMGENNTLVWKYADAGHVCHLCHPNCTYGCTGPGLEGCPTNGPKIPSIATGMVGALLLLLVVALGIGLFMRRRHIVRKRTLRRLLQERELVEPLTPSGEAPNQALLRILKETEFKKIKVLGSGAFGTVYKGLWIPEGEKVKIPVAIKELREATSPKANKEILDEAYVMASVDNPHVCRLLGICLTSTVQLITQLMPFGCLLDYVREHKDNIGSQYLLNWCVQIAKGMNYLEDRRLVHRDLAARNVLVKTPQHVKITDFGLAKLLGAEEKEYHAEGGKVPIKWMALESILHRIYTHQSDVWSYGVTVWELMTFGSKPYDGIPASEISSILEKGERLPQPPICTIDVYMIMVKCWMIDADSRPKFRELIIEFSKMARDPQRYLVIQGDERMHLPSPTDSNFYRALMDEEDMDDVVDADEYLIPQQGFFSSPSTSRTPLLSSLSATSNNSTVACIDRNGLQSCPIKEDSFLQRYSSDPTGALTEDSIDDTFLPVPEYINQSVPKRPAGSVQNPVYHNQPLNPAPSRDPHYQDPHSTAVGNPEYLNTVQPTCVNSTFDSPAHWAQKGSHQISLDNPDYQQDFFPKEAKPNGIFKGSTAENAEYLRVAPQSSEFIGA
Abl (h), sequence (P00519 whole entry): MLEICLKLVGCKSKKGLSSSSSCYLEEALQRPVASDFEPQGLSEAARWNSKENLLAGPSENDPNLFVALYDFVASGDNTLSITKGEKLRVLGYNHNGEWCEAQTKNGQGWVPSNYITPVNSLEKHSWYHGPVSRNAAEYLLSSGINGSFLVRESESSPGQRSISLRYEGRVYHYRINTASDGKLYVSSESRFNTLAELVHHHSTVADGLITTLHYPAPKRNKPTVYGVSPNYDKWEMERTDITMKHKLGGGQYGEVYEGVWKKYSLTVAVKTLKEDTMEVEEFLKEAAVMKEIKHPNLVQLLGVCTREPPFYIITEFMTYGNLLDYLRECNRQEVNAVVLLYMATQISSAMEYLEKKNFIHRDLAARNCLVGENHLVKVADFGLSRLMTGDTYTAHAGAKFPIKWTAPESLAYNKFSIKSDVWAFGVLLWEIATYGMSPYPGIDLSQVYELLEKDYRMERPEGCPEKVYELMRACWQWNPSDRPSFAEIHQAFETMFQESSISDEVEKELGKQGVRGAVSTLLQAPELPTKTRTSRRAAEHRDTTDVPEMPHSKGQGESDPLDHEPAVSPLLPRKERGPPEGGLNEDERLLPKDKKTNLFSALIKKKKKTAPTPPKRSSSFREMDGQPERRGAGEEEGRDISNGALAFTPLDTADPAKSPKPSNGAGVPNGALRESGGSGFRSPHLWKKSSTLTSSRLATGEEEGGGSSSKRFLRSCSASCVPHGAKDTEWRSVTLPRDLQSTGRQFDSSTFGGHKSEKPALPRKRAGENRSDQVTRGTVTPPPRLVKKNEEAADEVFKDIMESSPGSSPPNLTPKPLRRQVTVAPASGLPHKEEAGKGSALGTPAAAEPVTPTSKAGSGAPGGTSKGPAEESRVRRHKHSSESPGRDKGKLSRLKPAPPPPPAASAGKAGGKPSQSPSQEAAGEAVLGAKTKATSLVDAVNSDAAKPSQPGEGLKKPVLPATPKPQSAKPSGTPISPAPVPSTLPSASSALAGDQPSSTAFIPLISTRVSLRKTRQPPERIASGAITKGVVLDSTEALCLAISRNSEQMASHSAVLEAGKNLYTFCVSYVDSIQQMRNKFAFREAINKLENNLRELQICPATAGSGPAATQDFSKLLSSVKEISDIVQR
Yes (h), sequence (P07947 whole entry): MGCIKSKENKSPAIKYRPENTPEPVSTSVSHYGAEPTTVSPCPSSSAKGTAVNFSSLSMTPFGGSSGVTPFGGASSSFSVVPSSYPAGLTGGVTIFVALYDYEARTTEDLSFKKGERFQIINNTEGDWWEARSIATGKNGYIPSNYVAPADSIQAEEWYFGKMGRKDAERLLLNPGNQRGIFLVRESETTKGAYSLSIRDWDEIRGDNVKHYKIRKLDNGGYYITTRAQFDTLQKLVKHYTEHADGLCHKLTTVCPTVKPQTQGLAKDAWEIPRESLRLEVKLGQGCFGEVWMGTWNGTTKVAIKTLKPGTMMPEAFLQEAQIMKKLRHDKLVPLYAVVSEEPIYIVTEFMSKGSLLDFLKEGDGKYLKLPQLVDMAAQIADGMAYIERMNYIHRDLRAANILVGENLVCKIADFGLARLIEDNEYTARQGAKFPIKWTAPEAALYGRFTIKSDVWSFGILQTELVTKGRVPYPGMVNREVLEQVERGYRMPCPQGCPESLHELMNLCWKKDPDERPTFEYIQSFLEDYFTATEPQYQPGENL
Lck (h), sequence (P06239 whole entry): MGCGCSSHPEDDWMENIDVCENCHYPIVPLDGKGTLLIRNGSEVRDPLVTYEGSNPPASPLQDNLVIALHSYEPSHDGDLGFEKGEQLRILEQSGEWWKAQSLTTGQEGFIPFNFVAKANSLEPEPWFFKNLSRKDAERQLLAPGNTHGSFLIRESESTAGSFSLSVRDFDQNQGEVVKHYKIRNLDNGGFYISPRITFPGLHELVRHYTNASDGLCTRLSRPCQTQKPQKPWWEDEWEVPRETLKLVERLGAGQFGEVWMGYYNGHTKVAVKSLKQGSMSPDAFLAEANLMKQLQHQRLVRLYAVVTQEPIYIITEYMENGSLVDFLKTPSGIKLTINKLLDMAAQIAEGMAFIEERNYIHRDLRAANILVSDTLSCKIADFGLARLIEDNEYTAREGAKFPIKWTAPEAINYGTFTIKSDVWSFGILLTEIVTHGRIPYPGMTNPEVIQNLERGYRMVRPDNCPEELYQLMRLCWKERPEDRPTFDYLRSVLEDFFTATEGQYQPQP
cSRC (h), sequence (P12931 whole entry): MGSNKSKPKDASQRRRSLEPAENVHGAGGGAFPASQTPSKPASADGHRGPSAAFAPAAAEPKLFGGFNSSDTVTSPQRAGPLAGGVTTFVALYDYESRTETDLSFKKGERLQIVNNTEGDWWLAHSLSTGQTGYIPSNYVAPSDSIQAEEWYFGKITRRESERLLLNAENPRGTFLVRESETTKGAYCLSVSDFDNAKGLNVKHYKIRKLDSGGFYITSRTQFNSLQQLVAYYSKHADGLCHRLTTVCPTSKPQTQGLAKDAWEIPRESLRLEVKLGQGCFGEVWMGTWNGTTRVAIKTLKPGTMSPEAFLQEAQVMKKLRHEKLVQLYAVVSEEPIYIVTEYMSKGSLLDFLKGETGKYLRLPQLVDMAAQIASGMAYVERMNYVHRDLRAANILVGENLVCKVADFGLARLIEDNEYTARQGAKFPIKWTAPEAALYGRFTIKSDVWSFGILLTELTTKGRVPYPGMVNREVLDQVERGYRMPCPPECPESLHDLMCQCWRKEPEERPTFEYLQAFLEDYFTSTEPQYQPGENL

What is called inhibition is the drop in the measured response relative to a control, in per cent. Consider `O=C1NCc2cccc(c2)Nc2ccnc(n2)Nc2cccc1c2` [Compound 24, 2,4,8,15,23-pentaazatetracyclo[15.3.1.1~3,7~.1~9,13~]tricosa-1(21),3,5,7(23),9,11,13(22),17,19-nonaen-16-one], for which the inhibition at 1 µM was 30 to 60% on Lck (h); 10 to 30% at Lyn (h); 10 to 30% on cSRC (h); 60 to 80% at Flt3 (h); 10 to 30% on Fms (h); 30 to 60% at Abl (h). The inhibition at 1 µM on Yes (h) lay in the range of 10 to 30%.
For the compound `O=C1COc2cccc(c2)Nc2nccc(n2)Nc2cccc(c2)CN1` [Compound 23, 18-oxa-2,4,8,15,25-pentaazatetracyclo[17.3.1.1~3,7~.1~9,13~]pentacosa-1(23),3,5,7(25),9,11,13(24),19,21-nonaen-16-one], the inhibition at 1 µM at Flt3 (h) was 30 to 60%; at Abl (h) it was 10 to 30%; on Fes (h) it was 10 to 30%.
In the case of `O=C1NCCCCCCOc2cccc(c2)Nc2ccnc(n2)Nc2cccc1c2` [Compound 21, 14-oxa-2,4,8,21,29-pentaazatetracyclo[21.3.1.1~3,7~.1~9,13~]nonacosa-1(27),3,5,7(29),9,11,13(28),23,25-nonaen-22-one], the inhibition at 1 µM on Lck (h) is 30 to 60%; on Lyn (h), 10 to 30%; on cSRC (h), 10 to 30%; at Flt3 (h), 60 to 80%; on Fms (h), 30 to 60%; at GSK3B (h), 10 to 30%. Further, the inhibition at 1 µM at Abl (h) and at Yes (h) was 10 to 30% each time.
On to `COc1ccc2cc1OCCCNC(=O)[C@H](CC(C)C)NC(=O)Cc1ccc(Cl)cc1Nc1cc(ncn1)N2` [Compound 12, 6, 2:12,8-dimetheno-7H-13,1,3,5,7,17,20-benzoxahexaazacyclotetracosine-18,21-dione, 25-chloro-1,14,15,16,17,19,20,22-octahydro-11-methoxy-19-(2-methylpropyl)-, (19S)-], for which, at Lck (h), the “C9 score (inhibition of Lck human)” value was 4 (Score 4=>80% inhibition). At Lyn (h), the “C10 score (inhibition of Lyn human)” value is listed as 4 (Score 4=>80% inhibition). For the same compound, at cSRC (h), the “C3 score (inhibition of cSRC human)” value is 4 (Score 4=>80% inhibition). Besides, on EGFR (h), the “C4 score (inhibition of EGFR human)” value is recorded as 4 (Score 4=>80% inhibition). Also, the “C1 score (inhibition of Abl human)” value at Abl (h) is 2 (Score 2=30-60% inhibition). In addition, the “C11 score (inhibition of Yes human)” value at Yes (h) was 4 (Score 4=>80% inhibition). Moreover, on Fes (h), the “C4 score (inhibition of Fes human)” value is given as 2 (Score 2=30-60% inhibition).
Take `O=C1CCc2cccc(c2)Nc2cc(ncn2)Nc2cccc(c2)CN2CCN1CC2` [Compound 43, 1,8,10,12,14,23-hexaazapentacyclo[21.2.2.1~3,7~.1~9,13~.1~15,19~]triaconta-3,5,7(30),9,11,13(29),15,17,19(28)-nonaen-22-one]: the inhibition at 1 µM at Lck (h) was in the range of 10 to 30%; at Lyn (h), 30 to 60%; on Flt3 (h), 30 to 60%; at EGFR (h), 30 to 60%; on Fms (h), 30 to 60%; on Yes (h) it was 10 to 30%.
In the case of `N#Cc1cnc2nc1Nc1cccc(c1)C(=O)NCCCCCOc1cccc(c1)N2` [Compound 18, 21-oxa-2,4,8,15,28-pentaazatetracyclo[20.3.1.1~3,7~.1~9,13~]octacosa-1(26),3,5,7(28),9,11,13(27),22,24-nonaene-6-carbonitrile, 14-oxo-], the inhibition at 1 µM at Lck (h) fell in the range of 10 to 30%; on Lyn (h), 30 to 60%; on Flt3 (h) it was 30 to 60%; at EGFR (h) it was 10 to 30%; on Fms (h) it was 30 to 60%; on Abl (h) it was 10 to 30%. In addition, the inhibition at 1 µM on Yes (h) and on Fes (h) was 10 to 30% each time.
